Activity calls are given as the source filed them.
Columns and labels:
[1] = biological target: Eukaryotic translation initiation factor 4E (Mus musculus, UniProt P63073); test: blockers of eIF4G binding by eIF4E – biochemical, TR-FRET, dose response (AID 855); assay type: functional;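 further: potency for disrupting eIF4E binding to eIF4GI seen as loss of FRET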
[2] = A549 cell cytotoxicity, dose response, cytotoxicity control, plate reader, cherry-pick, antagonist series (AID 743412); assay type: functional, cell-based
[3] = blockers of bursicon-stimulated LGR2 cAMP reporter – cell-based, HEK293, CRE-luciferase reporter, cherry pick, set 2, dose response (AID 743343); assay type: functional;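 further: transfected cells were stimulated with diluted bursicon conditioned medium after compound addition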
[4] = blockade of melanocortin 4 receptor signaling – cell-based, plate reader, cherry pick, counter-screen for LGR2 antagonist project, dose response (AID 743444); assay type: functional;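 further: transfected HEK 293 cells stimulated with alpha-MSH peptide; potency of inhibitors of the alpha-MSH evoked signal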
[5] = biological target: T1, Long-chain-fatty-acid--AMP ligase FadD28 (Mycobacterium tuberculosis, UniProt P9WQ59); test: Fluorescence polarization aasay to screen for inhibitors that compete for the binding of FadD28 to a bisubstrate Measured in Biochemical System Using Plate Reader - 2147-01_Inhibitor_Dose_CherryPick_Activity.; assay type: functional, Mycobacterium tuberculosis H37Rv
T1 sequence (P9WQ59 whole entry): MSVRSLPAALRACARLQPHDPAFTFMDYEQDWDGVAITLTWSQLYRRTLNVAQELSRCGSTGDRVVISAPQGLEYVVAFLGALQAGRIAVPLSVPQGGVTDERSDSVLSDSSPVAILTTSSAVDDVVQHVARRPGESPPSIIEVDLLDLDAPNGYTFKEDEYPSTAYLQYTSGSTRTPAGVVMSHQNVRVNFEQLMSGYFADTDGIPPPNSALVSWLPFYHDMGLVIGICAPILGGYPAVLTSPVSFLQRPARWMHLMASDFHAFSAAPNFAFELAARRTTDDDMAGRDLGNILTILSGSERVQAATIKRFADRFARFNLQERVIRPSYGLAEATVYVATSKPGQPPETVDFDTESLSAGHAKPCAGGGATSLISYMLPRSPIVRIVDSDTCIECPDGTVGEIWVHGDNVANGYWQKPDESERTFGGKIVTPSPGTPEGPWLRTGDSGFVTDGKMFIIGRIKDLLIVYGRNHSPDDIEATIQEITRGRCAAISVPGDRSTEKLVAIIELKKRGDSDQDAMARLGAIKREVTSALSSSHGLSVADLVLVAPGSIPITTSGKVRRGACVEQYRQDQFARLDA

cells [6] = assay type: functional, cell-based
cells [7] = assay type: functional, cell-based; remark: listed apart in the source
Escherichia coli = test: microbe, parasite or virus in culture
[8] = luciferase reporter signal suppression in cells – H4 neuroglioma cells, luminescence, dose response (AID 1990); assay type: functional, cell-based
BJ [9] = test: BJ-TERT fibroblast viability loss – cell-based, RAS-independent, luminescence, dose response (AID 1933); assay type: functional; conditions: Homo sapiens
[10] = Luminescence Cell-Based Dose Response HTS to Identify Inhibitors of 5'UTR Stem-Loop Driven Prion Protein mRNA Translation in H4 Neuroglioblastoma Cells. [Related pubchem assays: 1827 (Project Summary), 1813 (Primary HTS)]; assay type: functional
[11] = alpha-synuclein stem-loop luciferase translation blockers – H4 neuroglioma cells, luminescence, confirmation (AID 1988); assay type: functional, cell-based
BJ [12] = test: cells; assay type: functional, cell-based; conditions: Homo sapiens
BJ [13] = test: BJ-TERT-LT-ST fibroblast viability loss – cell-based, RAS-independent, luminescence, dose response (AID 1935); assay type: functional; conditions: Homo sapiens;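 further: BJ fibroblasts immortalized with TERT plus LT and ST oncogenes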
[14] = DRD fibroblast viability loss – cell-based, non-viral oncogenic, luminescence, dose response (AID 1934); assay type: functional; conditions: Homo sapiens
[15] = biological target: T2, Replicative DNA helicase DnaB (Mycobacterium tuberculosis, UniProt P9WMR3); test: DnaB intein splicing inhibitors, dose response, biochemical, cell-free fluorescence (AID 449749); assay type: functional
T2 sequence (P9WMR3 whole entry): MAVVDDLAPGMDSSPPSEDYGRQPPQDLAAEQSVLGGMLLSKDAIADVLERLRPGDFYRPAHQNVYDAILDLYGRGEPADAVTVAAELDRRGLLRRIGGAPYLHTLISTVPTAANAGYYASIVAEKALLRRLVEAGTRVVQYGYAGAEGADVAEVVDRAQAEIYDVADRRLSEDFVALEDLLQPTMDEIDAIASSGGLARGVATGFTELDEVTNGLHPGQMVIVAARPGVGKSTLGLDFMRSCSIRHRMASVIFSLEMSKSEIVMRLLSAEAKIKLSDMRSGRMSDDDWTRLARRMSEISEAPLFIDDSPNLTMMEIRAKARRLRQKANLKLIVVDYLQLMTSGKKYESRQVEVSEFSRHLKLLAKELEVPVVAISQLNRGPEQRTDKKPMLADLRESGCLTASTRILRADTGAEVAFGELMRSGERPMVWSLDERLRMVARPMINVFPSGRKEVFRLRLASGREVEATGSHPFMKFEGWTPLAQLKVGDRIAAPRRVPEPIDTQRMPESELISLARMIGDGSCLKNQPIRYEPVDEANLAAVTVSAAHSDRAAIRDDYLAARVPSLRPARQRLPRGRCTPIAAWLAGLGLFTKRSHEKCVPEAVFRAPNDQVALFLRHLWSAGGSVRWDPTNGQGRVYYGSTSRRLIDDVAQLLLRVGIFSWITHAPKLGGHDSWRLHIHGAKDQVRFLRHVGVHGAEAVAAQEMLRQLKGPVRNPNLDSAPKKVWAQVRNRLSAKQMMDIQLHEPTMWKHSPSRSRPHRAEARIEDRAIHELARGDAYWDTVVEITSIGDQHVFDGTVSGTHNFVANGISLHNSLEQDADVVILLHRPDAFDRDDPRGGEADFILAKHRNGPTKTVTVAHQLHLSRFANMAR

Protein RecA = biological target: T3, Protein RecA (Mycobacterium tuberculosis, UniProt P9WHJ3); test: Fluorescence Cell-Free Homogeneous Dose Retest to Identify Inhibitors of RecA-Intein Splicing Activity. [Related pubchem assays (depositor defined):AID2097, AID2223, AID489010, AID492950]; assay type: functional
T3 sequence (P9WHJ3 whole entry): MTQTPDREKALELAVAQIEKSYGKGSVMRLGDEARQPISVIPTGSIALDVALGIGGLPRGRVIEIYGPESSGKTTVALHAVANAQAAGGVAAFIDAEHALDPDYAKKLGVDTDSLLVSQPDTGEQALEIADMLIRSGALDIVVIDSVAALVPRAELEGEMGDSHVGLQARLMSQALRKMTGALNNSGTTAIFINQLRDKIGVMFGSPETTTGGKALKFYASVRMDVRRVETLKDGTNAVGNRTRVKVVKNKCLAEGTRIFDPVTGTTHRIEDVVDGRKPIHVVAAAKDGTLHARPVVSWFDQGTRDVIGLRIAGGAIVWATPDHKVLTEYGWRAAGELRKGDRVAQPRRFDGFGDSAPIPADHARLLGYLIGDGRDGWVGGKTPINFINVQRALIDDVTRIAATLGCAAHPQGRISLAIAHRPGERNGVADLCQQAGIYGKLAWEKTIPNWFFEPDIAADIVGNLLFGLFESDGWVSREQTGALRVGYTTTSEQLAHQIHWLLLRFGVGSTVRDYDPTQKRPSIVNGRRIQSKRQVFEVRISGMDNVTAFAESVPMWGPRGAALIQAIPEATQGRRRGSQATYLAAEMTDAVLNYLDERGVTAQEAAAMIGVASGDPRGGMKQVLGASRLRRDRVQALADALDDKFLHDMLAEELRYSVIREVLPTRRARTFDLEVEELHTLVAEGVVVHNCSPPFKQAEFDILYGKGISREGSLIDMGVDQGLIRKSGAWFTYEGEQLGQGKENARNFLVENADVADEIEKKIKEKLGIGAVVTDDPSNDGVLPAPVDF

INS1 = test: INS-1E survival protection against cytokine death – cell-based, luminescence, retest, dose response (AID 449756); assay type: functional; conditions: Rattus norvegicus;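 further: cell death triggered by IL-1 beta plus TNF-alpha plus IFN-gamma mixture; protective hits raise ATP signal compared with cytokine alone wells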
[16] = biological target: T4, COUP transcription factor 2 (Homo sapiens, UniProt P24468); test: Luminescence-based cell-based high throughput dose response assay to identify inhibitors of COUP-TFII (NR2F2).; assay type: functional;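 further: HEK293 cells transiently cotransfected with COUP-TFII expression vector and reporter; luciferase reporter luminescence driven by COUP-TFII from the pX2-168 reporter plasmid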
T4 sequence (P24468 whole entry): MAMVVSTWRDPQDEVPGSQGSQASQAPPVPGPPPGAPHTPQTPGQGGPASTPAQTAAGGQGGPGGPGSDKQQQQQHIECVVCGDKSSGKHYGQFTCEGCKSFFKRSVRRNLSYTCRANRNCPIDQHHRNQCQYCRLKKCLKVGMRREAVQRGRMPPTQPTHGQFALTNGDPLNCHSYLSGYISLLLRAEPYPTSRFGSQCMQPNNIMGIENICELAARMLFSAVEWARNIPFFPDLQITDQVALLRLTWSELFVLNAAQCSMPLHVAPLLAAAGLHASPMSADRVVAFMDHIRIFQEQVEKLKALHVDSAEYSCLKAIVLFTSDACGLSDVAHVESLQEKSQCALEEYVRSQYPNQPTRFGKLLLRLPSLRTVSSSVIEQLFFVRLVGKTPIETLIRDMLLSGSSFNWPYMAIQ

[17] = biological target: Luciferin 4-monooxygenase (Photinus pyralis, UniProt P08659); test: inhibition of purified Photinus pyralis luciferase – biochemical, luminescence, dose response (AID 1891)
Chain of Luciferin 4-monooxygenase (P08659 whole entry): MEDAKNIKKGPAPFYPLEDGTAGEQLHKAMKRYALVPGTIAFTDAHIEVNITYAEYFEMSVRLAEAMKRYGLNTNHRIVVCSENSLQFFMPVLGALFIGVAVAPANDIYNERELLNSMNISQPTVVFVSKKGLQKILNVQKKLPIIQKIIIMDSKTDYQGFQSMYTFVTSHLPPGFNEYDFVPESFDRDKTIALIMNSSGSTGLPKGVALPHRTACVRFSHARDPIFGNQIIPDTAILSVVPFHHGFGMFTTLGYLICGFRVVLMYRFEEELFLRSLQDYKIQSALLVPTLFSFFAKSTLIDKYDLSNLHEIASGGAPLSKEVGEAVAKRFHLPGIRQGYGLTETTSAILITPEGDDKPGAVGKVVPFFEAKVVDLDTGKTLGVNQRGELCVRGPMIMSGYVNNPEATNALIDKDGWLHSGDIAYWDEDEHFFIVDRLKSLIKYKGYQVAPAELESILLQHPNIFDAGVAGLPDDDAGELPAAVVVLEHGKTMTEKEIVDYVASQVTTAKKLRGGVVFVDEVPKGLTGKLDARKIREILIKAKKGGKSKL

[18] = Luminescence Cell-Based Dose Confirmation HTS to Identify Inhibitors of Platelet Dense Granule Release. [Related pubchem assays: 1663 (Primary HTS), 1678 (Summary of Project)]; assay type: functional
[19] = general cell-killing toxicity readout – plate reader, dry powder samples, cytotoxicity control for PAX8 inhibitor project, dose response (AID 743021); assay type: functional, cell-based

Chain of Eukaryotic translation initiation factor 4E (P63073 whole entry): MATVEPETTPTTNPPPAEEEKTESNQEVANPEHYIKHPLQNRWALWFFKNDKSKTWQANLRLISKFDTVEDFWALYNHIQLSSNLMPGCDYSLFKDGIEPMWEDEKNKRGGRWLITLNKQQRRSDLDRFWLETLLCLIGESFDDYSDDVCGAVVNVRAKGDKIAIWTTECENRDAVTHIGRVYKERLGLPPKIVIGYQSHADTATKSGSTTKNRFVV

Cc1nc(C(C)(C)O)n(-c2ccccc2)n1
IC50 [1]: > 64 µM (inactive)

CCn1c(SCC(=O)Nc2ccccc2OC)nc2ccccc2c1=O
IC50 [1]: > 64 µM (inactive)

Cc1ccc2[nH]c(-c3ccc(NC(=O)C4CCCO4)cc3)nc2c1 (stereo not drawn)
AC50 [2]: > 52 µM (inactive) | AC50 [3]: 5.48 µM (active) | AC50 [4]: 11.9 µM (active)

Cc1cccc(NC(=O)CN2C(=O)S/C(=C\c3cc(C)n(C)c3C)C2=O)c1
AC50 [5]: 0.381 µM (active)

Cc1cc(C)c(NS(=O)(=O)c2ccc3c(c2)NC(=O)CCS3)c(C)c1
EC50 (cells [6]): > 350 µM (not active) | EC50 (cells [7]): 58.1 µM (active) | AC50 (Escherichia coli): 23.1 µM (active)

C=CCn1cc(CN2CCC(C(=O)Nc3ccc(Oc4cccnc4)cc3)CC2)c(C)n1
AC50 [5]: 21 µM (active)

N#CC(C#N)=C(Nc1ccc(F)cc1)SCc1cccc(Br)c1
EC50 [8]: 11.2 µM (active) | EC50 (BJ [9]): 11.8 µM (inconclusive) | EC50 [10]: 0.272 µM (active) | EC50 [11]: 13.5 µM (active) | EC50 (BJ [12]): 22.2 µM (active) | EC50 (BJ [13]): 22.5 µM (active) | EC50 [14]: 21.7 µM (active) | AC50 [15]: 3.08 µM (active) | EC50 (Protein RecA): 2.38 µM (active) | AC50 (INS1): 2.92 µM (active) | IC50 [16]: 11.3 µM (inactive)

COc1cc(NC(=O)C2CCCCC2)c(OC)cc1NC(=O)c1ccco1
AC50 (Escherichia coli): 30.6 µM (active)

Cc1onc(-c2ccccc2)c1C(=O)Nc1nc(-c2cc(F)ccc2F)cs1
AC50 (Escherichia coli): 38.9 µM (active)

O=c1cc(Nc2ccc3c(c2)OCCO3)[nH]c(=O)n1C1CCCCC1
AC50 [5]: 61.1 µM (active)

COc1cccc(CC(=O)Nc2nc3c(s2)C(=O)CC(C)(C)C3)c1
EC50 [17]: > 112 µM (not active) | EC50 [18]: > 112 µM (not active) | AC50 [19]: 41.9 µM (active)

COc1cccc2sc(NN)nc12
AC50 [5]: > 100 µM (inactive)

— ChEMBL document CHEMBL1201862, “PubChem BioAssay data set” (2004)
